Data from PubChem BioAssay AID1500 (NMMLSC, 2009).
Active and inactive are the calls of the source.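 Rule for the calls: active = compounds cutting labeled signal peptide binding to staph cells by half or more; inactive = the rest.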

System: S. aureus cells, FITC-AIP binding, flow cytometry
Assay: displacement of labeled AIP from bacterial receptors – strains RN6390, NM300, flow cytometry, mechanism study for S. aureus quorum sensing inhibitors, late-stage follow-up (AID 1500)
Settings: stronger effect = higher value

Cc1c(Cl)cccc1Nc1ccccc1C(=O)O
inhibition (at 30 µM): 67% | inhibition (strain RN6390, at 30 µM): 60%

CC1CCCN(C(C(=O)Nc2ccc3c(c2)OCO3)c2ccccc2)C1 (stereo unspecified)
inhibition (at 12 µM): 20% (inactive)

CC1CCCN(C(C(=O)Nc2ccc3c(c2)OCCO3)c2ccccc2)C1 (stereo unspecified)
inhibition (at 12 µM): 26% (inactive)

CCc1oc2ccccc2c1C(=O)c1cc(Br)c(O)c(Br)c1
inhibition (at 6 µM): 65% | inhibition (strain RN6390, at 6 µM): 69%
